Tests used:
[1] = test system: mitotic marker phospho-histone H3 at serine 10 (pH3 (Ser10)) in transformed BJ cells; experiment: Immunoblot analysis of mitotic marker pH3 (Ser10), derivatives of Compound 1; format: cell-based; conditions: Homo sapiens, band intensities pH3(Ser10)/β-actin vs DMSO control, 24 h
Method: (§1) FIG. 4 compares the ability of Compound 1 (a131), and various derivatives thereof (referred to using their code numbers for brevity; the designated chemical compound for each code number is provided in the chemical examples section below), to inhibit autophagy and/or mitosis. BJ transformed cells were treated with 5 μM of various Compounds as shown, for 24 h. Cells were harvested and total lysates were analysed by detecting the mitotic marker phospho-histone H3 at serine 10 (pH3 (Ser10)) and the autophagosome marker LC3. Antibodies raised against β-actin were used as an internal loading control.
(§2) The ability of Compound 1 to inhibit lysosome function was examined using immunoblotting. HeLa cervical cancer cells were cultured in Dulbecco's modified Eagle's medium (DMEM) supplemented with 10% Fetal Bovine Serum (FBS, Thermo Scientific). The HeLa cells were treated with different concentrations of Compound 1 (0.625, 1.25, 2.5, 5 and 10 μM, dimethyl sulfoxide (DMSO, Kanto Kagaku)), chloroquine (CQ) (1.25, 2.5, 10, 50 and 100 μM, DMSO) or DMSO for 6 h. Then, the treated cells were harvested and lysed in 1% triton lysis buffer [25 mM Tris HCl (pH8.0), 150 mM NaCl, 1% triton-X100, 1 mM dithiothreitol (DTT), protease inhibitor mix (Complete Mini, Roche) and phosphatase inhibitor (PhosphoStop, Roche)]. The proteins in total lysates were boiled with sample buffer (60 mM Tris-HCl (pH 6.8), 25% glycerol, 2% SDS, 14.4 mM 2-mercaptoethanol, 0.1% bromophenol blue) and resolved by 14% tris-glycine sodium dodecyl sulfate polyacrylamide gel electrophoresis (SDS-PAGE) and subjected to immunoblot analysis.
(§3) Defects in lysosome function and inhibition of autophagy can be measured by accumulation of LC3-phosphatidylethanolamine conjugated non-soluble form (LC3-II), which are converted from soluble LC3-I. Thus, antibodies raised against LC3 (Cell Signaling, Cat#4108) were used to determine lysosomal function and integrity. Antibodies raised against phosphorylated histone H3 at serine 10 residue (pH3) (Cell signaling, Cat#3377) were used as the marker for mitotic dysfunction and arrest. Antibodies raised against β-actin (Millipore, Cat#MAB1501) were used as an internal loading control. The inhibitory ability of Compound 1 was also quantitatively compared to CQ.
(§4) Derivatives of Compound 1 were tested to see if they had similar dual activity, or presented only one of the activities of Compound 1. The protocol for immunoblot analysis described in Biology Example 1 was applied to the additional indicated compounds.
(§5) Activities of compounds were determined by two independent experiments. First, Compounds were classified according to the intensity of increase in each of the mitotic marker phospho-histone H3 at serine 10 (pH3 (Ser 10)) and the autophagosome marker LC3, respectively, at 1.25 μM, when compared with 1.25 μM Compound 1 (a131).
(§6) Compounds classified “++” on either “mitosis” or “inhibits lysosome” show similar increase in each of the mitotic marker phospho-histone H3 at serine 10 (pH3 (Ser10)) and the autophagosome marker LC3, respectively, at 2.5 μM, when compared with 1.25 μM Compound 1 (a131); and compounds classified “+” on either “mitosis” or “inhibits lysosome” show similar increase in each of the mitotic marker phospho-histone H3 at serine 10 (pH3 (Ser10)) and the autophagosome marker LC3, respectively, at a concentration range of 5-10 μM, when compared with 1.25 μM Compound 1 (a131).
Compounds classified “+/−” on either “mitosis” or “inhibits lysosome” show less increase in each of the mitotic marker phospho-histone H3 at serine 10 (pH3 (Ser10)) and the autophagosome marker LC3, respectively, at a concentration range of 5-10 μM, when compared with 1.25 μM Compound 1 (a131).
Next, the ability of Compound 1 and its derivatives to induce mitotic arrest in transformed BJ cells was quantified as the fold induction of band intensities [pH3(Ser10)/β-actin] in comparison with DMSO control. […]

[2] = test system: non-transformed normal BJ cells; experiment: BrdU incorporation and FACS analysis (cell cycle arrest); format: cell-based, human; conditions: 24 h; 2.5 and 5 μM (FIG. 9A, 9C)
Method: A: is output from a FACS analysis of isogenic-non-transformed, without (panels a-c) (WT) or with (panels d-f) shRNA-mediated knockdown of p53 (p53KD), and oncogene-transformed BJ cells (panels g-i), each treated with 0, 5 or 2.5 μM Compound 1 (a131) for 24 h. Cells were doubly stained with PI (horizontal axis) and BrdU (vertical axis). The BrdU-positive population in panels a-c are indicated as arrows. B: is a diagrammatic representation of an immunoblot analysis showing isogenic non-transformed (normal) and oncogene-transformed BJ cells (transformed) treated with Compound 1 (a131) at 0, 2.5 or 5 μM for 24 h or 48 h. Cells were harvested and total lysates were analysed by detecting p53 and p21. Antibodies raised against β-actin were used as an internal loading control. C and D are histograms showing the percentage of bromodeoxyuracil (BrdU)-positive non-transformed (normal) BJ cells. C: Cells were treated with Group 1 Compound 1 (a131) at 2.5 and 5 μM, Compound 23 (b36) at 2.5 and 5 μM, and Compound 21 (b35) at 5 μM, and Group 2 Compound 25 (a166) at 2.5 and 5 μM, for 24 h. Cells were doubly stained with propidium iodide (PI) and BrdU, and subjected to FACS analysis. The BrdU-positive population are plotted as bars. D: Cells were treated with Group 1 Compound 1 (a131), Compound 16 (b5), and Compound 17 (b9); Group 2 Compound 13 (b12), Compound 12 (b16) and Compound 25 (a166), and Group 3 Compound 3 (a159) at 5 μM for 48 h. The percentage of cells with BrdU positive population, in comparison with DMSO control vehicle, is shown with mean values±S.D. (n=3).
Isogenic non-transformed and oncogene-transformed BJ cells (cultured as in Biology Example 3) were treated with Compound 1 at final concentrations of 2.5 and 5 μM for 24 h. The treated cells were then treated with 30 μM final concentration of 5-bromo-2′-deoxyuridine (BrdU, SIGMA) for 1 h to detect DNA synthesis as a marker for cell proliferation. Subsequently, the cells were fixed in EtOH at 4° C. overnight and permeabilized with 2N HCl/0.5% Triton X-100 for 30 min. The cells were then treated with 0.1M sodium tetraborate for 2 min and stained with anti-BrdU antibody (Invitrogen, Cat#B35129) for 60 min, followed by a 30 min treatment with 20 μg/mL of propidium iodide (PI) and 10 μg/mL RNaseA.
Furthermore, the abilities of additional five (5) Compounds to arrest cells at the stage of G1/S phase of the cell cycle were evaluated. […] The abilities of these Compounds to arrest cells at the stage of G1/S phase of the cell cycle were then measured by using BrdU incorporation assay and FACS analysis. The percentage of cells with BrdU positive population in comparison with DMSO control vehicle was determined and plotted with mean values±S.D. (n=3).

[3] = test system: pH3 (Ser10) and LC3 in BJ transformed cells; experiment: Immunoblot classification of compounds by pH3 and LC3 (FIG. 4); format: cell-based, human; conditions: 5 μM, 24 h
Method: as §1, §4

[4] = test system: autophagosome marker LC3 (LC3 II/LC3 I) in transformed BJ cells; experiment: Immunoblot analysis of autophagosome marker LC3 (lysosome function), derivatives of Compound 1; format: cell-based; conditions: Homo sapiens, band intensities LC3 II/LC3 I vs DMSO control, 24 h
Method: as §1, §2, §3, §4, §5, §6
Compounds classified “+/−” on either “mitosis” or “inhibits lysosome” show less increase in each of the mitotic marker phospho-histone H3 at serine 10 (pH3 (Ser10)) and the autophagosome marker LC3, respectively, at a concentration range of 5-10 μM, when compared with 1.25 μM Compound 1 (a131). […]

N#C/C(=C\c1cccc2cnccc12)c1cn(C(=O)C2CCNCC2)c2ccccc12 [Compound 21, (Z)-3-(isoquinolin-5-yl)-2-(1-(piperidine-4-carbonyl)-1H-indol-3-yl)acrylonitrile]
fold induction at 5 µM [1]: 10.1
BrdU-positive cell population [2]: substantially decreased the population of BrdU-positive cells
Inhibition of lysosome function and/or mitosis (FIG. 4) [3]: exhibit the dual properties of inhibiting both lysosome function and mitosis
fold induction at 5 µM [4]: 7.3

N#C/C(=C\c1cccc2cnccc12)c1cn(C(=O)C2CCN(C(=O)CCCC[C@@H]3SC[C@@H]4NC(=O)N[C@@H]43)CC2)c2ccccc12 [Compound 23, (Z)-3-(isoquinolin-5-yl)-2-(1-(1-(5-((3aS,4S,6aR)-2-oxohexahydro-1H-thieno[3,4-d]imidazol-4-yl)pentanoyl)piperidine-4-carbonyl)-1H-indol-3-yl)acrylonitrile]
fold induction at 5 µM [1]: 18.6
BrdU-positive cell population [2]: substantially decreased the population of BrdU-positive cells
Inhibition of lysosome function and/or mitosis (FIG. 4) [3]: exhibit the dual properties of inhibiting both lysosome function and mitosis
fold induction at 5 µM [4]: 5.7

N#C/C(=C\c1cccc2cnccc12)c1cn(C(=O)CCNC(=O)CCCC[C@@H]2SC[C@@H]3NC(=O)N[C@@H]32)c2ccccc12 [Compound 24, N-(3-(3-((Z)-1-cyano-2-(isoquinolin-5-yl)vinyl)-1H-indol-1-yl)-3-oxopropyl)-5-((3aS,4S,6aR)-2-oxohexahydro-1H-thieno[3,4-d]imidazol-4-yl)pentanamide]
fold induction at 5 µM [1]: 3.2
Inhibition of lysosome function and/or mitosis (FIG. 4) [3]: exhibit the dual properties of inhibiting both lysosome function and mitosis
fold induction at 5 µM [4]: 3.3

C(=C\c1c[nH]c2ccccc12)/c1cncc2cnccc12 [Compound 26, 4-((E)-2-(1H-indol-3-yl)vinyl)-2,7-naphthyridine]
fold induction at 5 µM [1]: 1.2
Inhibition of lysosome function and/or mitosis (FIG. 4) [3]: inhibit lysosome function only
fold induction at 5 µM [4]: 2.7

C(=C\c1c[nH]c2ncccc12)/c1cccc2cnccc12 [Compound 27, 5-((E)-2-(1H-pyrrolo[2,3-b]pyridin-3-yl)vinyl)isoquinoline]
fold induction at 5 µM [1]: 1.2
Inhibition of lysosome function and/or mitosis (FIG. 4) [3]: inhibit lysosome function only
fold induction at 5 µM [4]: 2

COCCOCC(=O)n1cc(/C(C#N)=C/c2cccc3cnccc23)c2ccccc21 [Compound 30, (Z)-2-(1-(2-(2-methoxyethoxy)acetyl)-1H-indol-3-yl)-3-(isoquinolin-5-yl)acrylonitrile]
fold induction at 5 µM [1]: 12.8
Inhibition of lysosome function and/or mitosis (FIG. 4) [3]: exhibit the dual properties of inhibiting both lysosome function and mitosis
fold induction at 5 µM [4]: 4.1

N#C/C(=C\c1cccc2cnccc12)c1c[nH]c2cc(CN3CCCC3)ccc12 [Compound 31, (Z)-3-(isoquinolin-5-yl)-2-(6-((pyrrolidin-1-yl)methyl)-1H-indol-3-yl)acrylonitrile]
fold induction at 5 µM [1]: 1.1
Inhibition of lysosome function and/or mitosis (FIG. 4) [3]: inhibit lysosome function only
fold induction at 5 µM [4]: 5.7

N#C/C(=C\c1cccc2cnccc12)c1c[nH]c2ccc(CN3CCCC3)cc12 [Compound 32, (Z)-3-(isoquinolin-5-yl)-2-(5-((pyrrolidin-1-yl)methyl)-1H-indol-3-yl)acrylonitrile]
fold induction at 5 µM [1]: 1
Inhibition of lysosome function and/or mitosis (FIG. 4) [3]: inhibit lysosome function only
fold induction at 5 µM [4]: 3.3

N#C/C(=C\c1cccc2cnccc12)c1c[nH]c2c(CN3CCCC3)cccc12 [Compound 33, (Z)-3-(isoquinolin-5-yl)-2-(7-((pyrrolidin-1-yl)methyl)-1H-indol-3-yl)acrylonitrile]
fold induction at 5 µM [1]: 0.8
Inhibition of lysosome function and/or mitosis (FIG. 4) [3]: inhibit lysosome function only
fold induction at 5 µM [4]: 3.7

N#C/C(=C\c1cccc2cnccc12)c1n[nH]c2ccccc12 [Compound 34, (Z)-2-(1H-indazol-3-yl)-3-(isoquinolin-5-yl)acrylonitrile]
fold induction at 5 µM [1]: 1.4
Inhibition of lysosome function and/or mitosis (FIG. 4) [3]: inhibit lysosome function only
fold induction at 5 µM [4]: 2

Reference: patent publication US10308631B2, “Selective anti-cancer compounds” (NATIONAL UNIVERSITY OF SINGAPORE, priority 2015, dated 2019)
